Measurements: ChEMBL document CHEMBL3885881, “DrugMatrix”

Species: Rattus norvegicus
Test: DrugMatrix - Regimen: Daily Repeat
Format: toxicity, organism-based, Sprague-Dawley
Design: regimen Daily Repeat, gender Male, age 6-8 weeks
Conditions: in vivo, po, route oral GAVAGE, vehicle 100 % WATER; for ABSOLUTE BASOPHIL / ABSOLUTE EOSINOPHIL / ABSOLUTE LYMPHOCYTE / ABSOLUTE MONOCYTE / ABSOLUTE SEGMENTED NEUTROPHIL / BASOPHIL / EOSINOPHIL / ERYTHROCYTE COUNT / HEMATOCRIT / HEMOGLOBIN / LEUKOCYTE COUNT / LYMPHOCYTE / MEAN CORPUSCULAR HEMOGLOBIN / MEAN CORPUSCULAR HEMOGLOBIN CONCENTRATION / MEAN CORPUSCULAR VOLUME / MONOCYTE / NEUTROPHIL / NUCLEATED RED BLOOD CELLS / PLATELET COUNT: tissue Blood; for ALANINE AMINOTRANSFERASE / ALBUMIN / ALKALINE PHOSPHATASE / ASPARTATE AMINOTRANSFERASE / BLOOD UREA NITROGEN / CARBON DIOXIDE / CHLORIDE / CHOLESTEROL / CREATINE PHOSPHOKINASE / CREATININE / GLUCOSE / LACTATE DEHYDROGENASE / LIPASE / PHOSPHORUS / POTASSIUM / SODIUM / TOTAL BILIRUBIN / TOTAL PROTEIN / URIC ACID: tissue Plasma
[1] = 0 mg/kg, 72 h, dose level Control, time 3 day
[2] = 0 mg/kg, 120 h, dose level Control, time 5 day
[3] = 120 mg/kg, 72 h, dose level Low, time 3 day

CCN(CC)CCNC(=O)c1cc(S(C)(=O)=O)ccc1OC [TIAPRIDE]
ABSOLUTE BASOPHIL [1]: 0 CELLS/uL | ABSOLUTE EOSINOPHIL [1]: 151.33 CELLS/uL | ABSOLUTE LYMPHOCYTE [1]: 10599.5 CELLS/uL | ABSOLUTE MONOCYTE [1]: 109.5 CELLS/uL | ABSOLUTE SEGMENTED NEUTROPHIL [1]: 1139.67 CELLS/uL | BASOPHIL [1]: 0% | EOSINOPHIL [1]: 0.83% | ERYTHROCYTE COUNT [1]: 5.54 x10E6/uL | HEMATOCRIT [1]: 35.35% | HEMOGLOBIN [1]: 13.22 G/DL | LEUKOCYTE COUNT [1]: 12 x10E3/uL | LYMPHOCYTE [1]: 89% | MEAN CORPUSCULAR HEMOGLOBIN [1]: 23.88 pg | MEAN CORPUSCULAR HEMOGLOBIN CONCENTRATION [1]: 37.4 G/DL | MEAN CORPUSCULAR VOLUME [1]: 63.85 fL | MONOCYTE [1]: 1% | NEUTROPHIL [1]: 9.17% | NUCLEATED RED BLOOD CELLS [1]: 0 /100WBC | PLATELET COUNT [1]: 1333.33 x10E3/uL | ALANINE AMINOTRANSFERASE [1]: 53.17 u/L | ALBUMIN [1]: 4.32 G/DL | ALKALINE PHOSPHATASE [1]: 404.33 u/L | ASPARTATE AMINOTRANSFERASE [1]: 83.17 u/L | BLOOD UREA NITROGEN [1]: 15.67 mg/dL | CARBON DIOXIDE [1]: 27.33 mmol/L | CHLORIDE [1]: 101.83 MEQ/L | CHOLESTEROL [1]: 68.67 mg/dL | CREATINE PHOSPHOKINASE [1]: 276.17 u/L | CREATININE [1]: 0.18 mg/dL | GLUCOSE [1]: 163.5 mg/dL | LACTATE DEHYDROGENASE [1]: 144.67 u/L | LIPASE [1]: 8.83 u/L | PHOSPHORUS [1]: 11.72 mg/dL | POTASSIUM [1]: 5.99 MEQ/L | SODIUM [1]: 143.57 MEQ/L | TOTAL BILIRUBIN [1]: 0.2 mg/dL | TOTAL PROTEIN [1]: 6.1 G/DL | URIC ACID [1]: 1.38 mg/dL | ABSOLUTE BASOPHIL [2]: 0 CELLS/uL | ABSOLUTE EOSINOPHIL [2]: 248.67 CELLS/uL | ABSOLUTE LYMPHOCYTE [2]: 12977.83 CELLS/uL | ABSOLUTE MONOCYTE [2]: 19.67 CELLS/uL | ABSOLUTE SEGMENTED NEUTROPHIL [2]: 1137.17 CELLS/uL | BASOPHIL [2]: 0% | EOSINOPHIL [2]: 1.67% | ERYTHROCYTE COUNT [2]: 5.82 x10E6/uL | HEMATOCRIT [2]: 36.35% | HEMOGLOBIN [2]: 13.58 G/DL | LEUKOCYTE COUNT [2]: 14.38 x10E3/uL | LYMPHOCYTE [2]: 90.5% | MEAN CORPUSCULAR HEMOGLOBIN [2]: 23.32 pg | MEAN CORPUSCULAR HEMOGLOBIN CONCENTRATION [2]: 37.42 G/DL | MEAN CORPUSCULAR VOLUME [2]: 62.42 fL | MONOCYTE [2]: 0.17% | NEUTROPHIL [2]: 7.67% | NUCLEATED RED BLOOD CELLS [2]: 0 /100WBC | PLATELET COUNT [2]: 1337.67 x10E3/uL | ALANINE AMINOTRANSFERASE [2]: 48.5 u/L | ALBUMIN [2]: 4.32 G/DL | ALKALINE PHOSPHATASE [2]: 354.33 u/L | ASPARTATE AMINOTRANSFERASE [2]: 80 u/L | BLOOD UREA NITROGEN [2]: 16 mg/dL | CARBON DIOXIDE [2]: 27.33 mmol/L | CHLORIDE [2]: 100.33 MEQ/L | CHOLESTEROL [2]: 68 mg/dL | CREATINE PHOSPHOKINASE [2]: 325.17 u/L | CREATININE [2]: 0.23 mg/dL | GLUCOSE [2]: 172 mg/dL | LACTATE DEHYDROGENASE [2]: 254.83 u/L | LIPASE [2]: 8.33 u/L | PHOSPHORUS [2]: 12.17 mg/dL | POTASSIUM [2]: 6.28 MEQ/L | SODIUM [2]: 143.57 MEQ/L | TOTAL BILIRUBIN [2]: 0.18 mg/dL | TOTAL PROTEIN [2]: 6.12 G/DL | URIC ACID [2]: 1.78 mg/dL | ABSOLUTE BASOPHIL [3]: 0 CELLS/uL | ABSOLUTE EOSINOPHIL [3]: 161.33 CELLS/uL | ABSOLUTE LYMPHOCYTE [3]: 8742.33 CELLS/uL | ABSOLUTE MONOCYTE [3]: 34.33 CELLS/uL | ABSOLUTE SEGMENTED NEUTROPHIL [3]: 962 CELLS/uL | BASOPHIL [3]: 0% | EOSINOPHIL [3]: 1.33% | ERYTHROCYTE COUNT [3]: 5.57 x10E6/uL | HEMATOCRIT [3]: 35.07% | HEMOGLOBIN [3]: 13.23 G/DL | LEUKOCYTE COUNT [3]: 9.9 x10E3/uL | LYMPHOCYTE [3]: 88.33% | MEAN CORPUSCULAR HEMOGLOBIN [3]: 23.77 pg | MEAN CORPUSCULAR HEMOGLOBIN CONCENTRATION [3]: 37.7 G/DL | MEAN CORPUSCULAR VOLUME [3]: 63.03 fL | MONOCYTE [3]: 0.33% | NEUTROPHIL [3]: 10% | NUCLEATED RED BLOOD CELLS [3]: 0 /100WBC | PLATELET COUNT [3]: 1263 x10E3/uL | ALANINE AMINOTRANSFERASE [3]: 47.67 u/L | ALBUMIN [3]: 4.13 G/DL | ALKALINE PHOSPHATASE [3]: 345 u/L | ASPARTATE AMINOTRANSFERASE [3]: 82.33 u/L | BLOOD UREA NITROGEN [3]: 15.33 mg/dL | CARBON DIOXIDE [3]: 27.33 mmol/L | CHLORIDE [3]: 103 MEQ/L | CHOLESTEROL [3]: 60.67 mg/dL | CREATINE PHOSPHOKINASE [3]: 172.67 u/L | CREATININE [3]: 0.19 mg/dL | GLUCOSE [3]: 170.33 mg/dL | LACTATE DEHYDROGENASE [3]: 114 u/L | LIPASE [3]: 8 u/L | PHOSPHORUS [3]: 12.83 mg/dL | POTASSIUM [3]: 5.99 MEQ/L | SODIUM [3]: 145.83 MEQ/L | TOTAL BILIRUBIN [3]: 0.2 mg/dL | TOTAL PROTEIN [3]: 6.17 G/DL | URIC ACID [3]: 1.33 mg/dL
